Some test systems named below: SF-268; HCT-15; HL-60; SK-MEL-2; UACC-62; CCRF-CEM; SF-295; SW-620; EKVX; RXF 393; SF-539; NCI-H522; DU-145; IGROV-1; OVCAR-8; CAKI-1; HT-29; HCT-116; SK-MEL-5; BT-549.
What all share (experiment): inhibition of tumour cell growth, NCI panel, 48 h

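Where inhibition never reached the appropriate level, the endpoint shown equals the highest concentration tested. Otherwise, values were interpolated linearly from a five-concentration, 48-hour dose response in 96-well plates. The concentration for 50% growth inhibition is given as GI50.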 The source made the active and inactive calls. No stated cut-off is given here; in the data, active = GI50 up to about 1.1 µM and inactive = higher.

Turning to `COC(=O)Cc1cc2c(cc1C(=O)c1ccc(N)cc1)OCO2`, the GI50 in the test on SF-268 is 2.62 µM (inactive); in the test on HCT-15, 1.1 µM; in the test on HL-60, 2.36 µM (inactive); in the test on SK-MEL-2, 0.964 µM (active); in the test with UACC-62, 1.11 µM (active); in the test on CCRF-CEM it was 1.48 µM (inactive). The GI50 with SF-295 was 1.12 µM (active); in the test with SW-620, 1.19 µM (inactive); in the test on EKVX, 4.03 µM (inactive); in the test with RXF 393 it was 4.34 µM (inactive); in the test with SF-539, 2.9 µM (inactive); with NCI-H522, 0.228 µM (active). Moreover, the GI50 in the test on DU-145 is 4.11 µM (inactive); with IGROV-1 it was 0.625 µM (active); with OVCAR-8, 3.56 µM (inactive); with CAKI-1, 3.48 µM (inactive); in the test on HT-29, 1.09 µM (active); with HCT-116 it was 1.77 µM (inactive). Moreover, the GI50 in the test with SK-MEL-5 is 0.435 µM (active).
Take `O=C1OC[C@@H]2Cc3cc4c(cc3[C@H](c3ccc5c(c3)OCO5)[C@@H]12)OCO4`: the GI50 with HCT-15 is 11 µM; in the test on HL-60 it was 10.6 µM (inactive); in the test with SK-MEL-2, > 25 µM (inactive); with CCRF-CEM it was > 25 µM (inactive); in the test on SF-295, 24.7 µM (inactive); in the test on EKVX, > 25 µM (inactive). The GI50 in the test with BT-549 is > 25 µM (inactive); in the test on DU-145, > 25 µM (inactive); in the test on OVCAR-8, > 25 µM (inactive); in the test with CAKI-1 it was > 25 µM (inactive); in the test with HT-29 it was 24.1 µM (inactive); in the test on HCT-116, 18.2 µM (inactive). Besides, the GI50 in the test with SK-MEL-5 is 16 µM (inactive).
Consider `C=C(Br)CNC(=O)CCC(=O)NCC(=C)Br`, for which the GI50 in the test with SF-268 was > 100 µM (inactive); in the test with HCT-15, more than 100 µM; in the test with HL-60, > 100 µM (inactive); in the test on SK-MEL-2 it was > 100 µM (inactive); in the test with UACC-62 it was > 100 µM (inactive); in the test with CCRF-CEM, > 100 µM (inactive). The GI50 in the test on SF-295, in the test with SW-620, in the test on EKVX, in the test with RXF 393, in the test on SF-539 and in the test on NCI-H522 was > 100 µM (inactive) in each case. The GI50 with DU-145, in the test with IGROV-1, in the test on OVCAR-8, with CAKI-1, in the test on HT-29 and in the test with HCT-116 was > 100 µM (inactive) each time. Besides, the GI50 in the test on SK-MEL-5 was > 100 µM (inactive).
Take `N#Cc1c(N)oc(-c2cccc([N+](=O)[O-])c2)c1C#N`: the GI50 with SF-268 is 31.4 µM (inactive); in the test with HCT-15, 16.1 µM; in the test on HL-60 it was 28.5 µM (inactive); in the test with SK-MEL-2, 44.5 µM (inactive); with UACC-62, 30 µM (inactive); with CCRF-CEM, 27 µM (inactive). The GI50 is > 100 µM (inactive) in the test on SF-295; 24.1 µM (inactive) in the test with SW-620; 12.9 µM (inactive) in the test on EKVX; 24.8 µM (inactive) with RXF 393; 23.2 µM (inactive) in the test with SF-539; 23.7 µM (inactive) in the test on NCI-H522. Besides, the GI50 was > 100 µM (inactive) with DU-145; 23.6 µM (inactive) with IGROV-1; 21.1 µM (inactive) in the test on OVCAR-8; 20.7 µM (inactive) in the test with CAKI-1; 20 µM (inactive) in the test with HT-29; 33.7 µM (inactive) in the test with HCT-116. Besides, the GI50 in the test on SK-MEL-5 was 19.6 µM (inactive).
Regarding `CN(C)CCNC(=O)c1cccc2c(NC(CS)C(=O)O)c3ccccc3[n+](C)c12` (stereo not given), the GI50 in the test on SF-268 is 23.6 µM (inactive); in the test with HCT-15 it was more than 100 µM; with SK-MEL-2, > 100 µM (inactive); with UACC-62 it was 61.2 µM (inactive); in the test on SF-295 it was > 100 µM (inactive); in the test on SW-620 it was 39.7 µM (inactive). In addition, the GI50 in the test on EKVX is 56.9 µM (inactive); in the test on BT-549, 35.6 µM (inactive); with SF-539, 80.4 µM (inactive); in the test on DU-145, 37.6 µM (inactive); in the test on IGROV-1, 43.8 µM (inactive); in the test on OVCAR-8, 56.8 µM (inactive). The GI50 with HT-29 is 99.3 µM (inactive); with HCT-116, 41.1 µM (inactive); with SK-MEL-5, 47 µM (inactive).
Consider `CC12CC3CC/C(=N\O)C(C1)C3(N1CCOCC1)C/C2=N/O` (stereo not given), for which the GI50 in the test with SF-268 is > 100 µM (inactive); in the test with HCT-15, more than 100 µM; in the test with HL-60, 49.8 µM (inactive); with SK-MEL-2, > 100 µM (inactive); in the test with UACC-62 it was > 100 µM (inactive); with CCRF-CEM, > 100 µM (inactive). Also, the GI50 with SF-295, with SW-620, in the test on EKVX, in the test with RXF 393, in the test on SF-539 and with NCI-H522 was > 100 µM (inactive) each time. In addition, the GI50 with DU-145, in the test on IGROV-1, with OVCAR-8, in the test with CAKI-1, in the test on HT-29 and in the test on HCT-116 was > 100 µM (inactive) throughout. Also, the GI50 in the test with SK-MEL-5 is > 100 µM (inactive).
In the case of `SC1=NC2=C(CSC/C2=C\c2ccc(Cl)cc2)C(c2ccc(Cl)cc2)N1` (stereo not given), the GI50 with SF-268 is 75.7 µM (inactive); in the test with HCT-15 it was 34 µM; with HL-60, 24.7 µM (inactive); with SK-MEL-2 it was 34.2 µM (inactive); in the test with UACC-62, 49 µM (inactive); in the test with CCRF-CEM, 24.7 µM (inactive). Besides, the GI50 in the test on SF-295 was 42.2 µM (inactive); in the test on SW-620, 41.3 µM (inactive); in the test on EKVX, 38 µM (inactive); in the test with NCI-H522 it was 42.8 µM (inactive); with DU-145 it was 39.4 µM (inactive); in the test with IGROV-1, 51.8 µM (inactive). Further, the GI50 is 39.2 µM (inactive) in the test on OVCAR-8; 42.3 µM (inactive) in the test on CAKI-1; 29.6 µM (inactive) in the test on HT-29; 27.5 µM (inactive) in the test with HCT-116; 19.1 µM (inactive) in the test with SK-MEL-5.
On to `CN(/N=C/c1ccccn1)C1=NCCCCN1`, for which the GI50 in the test on SF-268 is > 100 µM (inactive); in the test with HCT-15 it was more than 100 µM; with HL-60 it was > 100 µM (inactive); in the test with SK-MEL-2 it was > 100 µM (inactive); in the test on UACC-62, > 100 µM (inactive); in the test on CCRF-CEM it was > 100 µM (inactive). For the same compound, the GI50 in the test with SF-295, in the test on SW-620, in the test with EKVX, with BT-549, with RXF 393 and with SF-539 was > 100 µM (inactive) in each case. Besides, the GI50 in the test on NCI-H522, with IGROV-1, in the test with OVCAR-8, in the test with CAKI-1, in the test with HT-29 and in the test on HCT-116 was > 100 µM (inactive) each time. In addition, in the test on SK-MEL-5, the GI50 is > 100 µM (inactive).

The values above are taken from ChEMBL document CHEMBL1201862, “PubChem BioAssay data set” (2004).
